From patent US20220152226A1, “INTRACELLULAR DELIVERY AND MITOCHONDRIAL TARGETING BY FLUORINATION” (The Texas A&M University System, priority 2019, published 2022)

What was measured:
[1] = Body weight and white blood cell counts of treated 4T1 tumor mice; format: in vivo, BALB/c mice
Protocol: Animal experiments. The subcutaneous (s.c.) syngeneic 4T1 tumor mouse model was established by s.c. implantation of 5×10^6 4T1 cells in the right rear flank of the BALB/c mice. The tumor was measured by a caliper.
To study anticancer activity, the saline, VES, PEG2k-F7, VES-loaded PEG2k-PE micelles and VES-loaded PEG2k-F7 micelles were injected intravenously via the tail at a dose of 20 mg/kg every three days for 3 injections. The tumor size and mouse body weight were monitored every other day. The mice were sacrificed and the blood, major organs and tumors were collected. White blood cells were counted by using a hemocytometry by microscopy.

[2] = tested on: isolated mitochondria (HeLa cells); assay: Binding affinity study with isolated mitochondria; set-up: species or system human; details: 37° C., 1 h, fluorescence
Protocol: (§1) Mitochondria Isolation and Binding Affinity Study. The intracellular mitochondria were isolated by the commercial Mitochondria Isolation Kit for Cultured Cells (Thermo Fisher Scientific). Briefly, 2×10^7 HeLa cells were collected by trypsinization and centrifugation (850 g for 2 min). Then, the cells were lysed and the mitochondria were separated from other cell fragments by several washing and centrifugation steps as the manufacture's manual (Option A). The isolated mitochondria were freshly made for the binding affinity study.
The isolated mitochondria were incubated with the FITC-PEG2k, FITC-PE, FITC-F7, FITC-PEG2k-F7, Rh123, and MITOVIEW™ Green at 37° C. for 1 h, respectively. Then, the mitochondria were washed with PBS for three times and suspended in 200 μL PBS. The mitochondria suspension was observed on a Nikon Ti Eclipse fluorescence microscope. The fluorescence intensity was recorded on the microplate reader.

mitochondria = assay: Quantification of mitochondria-accumulated dyes in living cells; format: cell-based
Protocol: For quantification of the mitochondria-accumulated dyes in living cells, 2×10^7 cells were incubated with the FITC-PE, FITC-F7, or Rh123 at 37° C. for 1 h. After washing with PBS, the (total) cellular fluorescence intensity was measured by microplate reader. Then, the cells were lysed and the mitochondria were separated from other cell fragments by Mitochondria Isolation Kit for Cultured Cells (Option A). The fluorescence intensities of the isolated mitochondria and other cell fragments were measured by the microplate reader. To study the influence of mitochondrial membrane potential on mitochondrial targeting, the cells were pre-incubated with the uncoupler, CCCP (50 μM), for 15 min, and then incubated with the FITC-F7 or Rh123 for 1 h.

HeLa cells = assay: Mitochondrial membrane potential measurement (JC-1 dye, flow cytometry); format: cell-based, human; details: 50 μM, 1 h, compared to untreated cells (FIG. 6B)
Protocol: Mitochondrial Membrane Potential Measurement. The mitochondrial membrane potential was determined using the JC-1 dye by flow cytometry. Briefly, the HeLa cells were seeded at a density of 1×10^5 cells/well in 24-well plates for 24 h. The cells were incubated with the same molar concentration (50 μM) of the PEG2k-F7, TPP and CCCP (mitochondrial uncoupler) in the serum-free medium for 1 h. Then, the cells were washed three times by the iced-cold medium to remove the uninternalized materials. The cells were incubated with the JC-1 dye (Biotium) for 15 min at 37° C., followed by the flow cytometry.

[3] = tested on: isolated mitochondria (HeLa cells); assay: Competitive binding assay on isolated mitochondria (Rh123); set-up: species or system human; details: pre-incubation 37° C. 1 h, then Rh123 1 h
Protocol: as §1
For the competitive binding assay, the isolated mitochondria were pre-incubated with triphenylphosphonium (TPP) or PEG2k-F7 at 37° C. for 1 h, and then washed with PBS for three times. The pretreated mitochondria were incubated with Rh123 at 37° C. for additional 1 h. After washing with PBS for three times, the mitochondria were analyzed by the microplate reader.

Cc1c(C)c2c(c(C)c1OC(=O)CCC(=O)O)CC[C@@](C)(CCC[C@H](C)CCC[C@H](C)CCCC(C)C)O2 [VES, d-Vitamin E succinate]
white blood cell (WBC) counts ([1]; FIG. 13): relatively similar to one another | body weight of mice ([1]; over 14 days (FIG. 10)): stayed relatively the same

fluorescein isothiocyanate [FITC]
binding affinity with isolated mitochondria [2]: did not significantly bind

rhodamine 123 [Rh123]
effect of CCCP-induced membrane depolarization on mitochondrial accumulation (mitochondria; CCCP 50 μM pre-incubation 15 min, then dye 1 h): substantially reduced | mitochondrial accumulation (mitochondria; mitochondria isolated from treated cells, 37° C., 1 h): 17.5%

c1ccc(P(c2ccccc2)c2ccccc2)cc1 [TPP, triphenylphosphonium]
effect on mitochondrial membrane potential (HeLa cells): dramatically depolarized mitochondria | decrease of Rh123 binding affinity by pre-incubation [3]: about 50%
